Experiment [1] has as its system plaque-forming splenic cells (PFC). Put plainly: Primary antibody response against thymus-dependent antigen (PFC, Jerne plaque assay). Format: in vivo, Mice B6 D2 F1. To be noted: 25 gamma i.p. 6 days before immunisation. An excerpt:
(§1) The following experimental tests were used: • 1. Primary antibody response against thymus-dependent antigen, evaluated as the number of plaque-forming splenic cells (PFC) Mice B6 D2 F1, antigen SRBC (red sheep corpuscles) Jerne N.K and Nordin A.A., Plaque formation in ager by single antibody-producing cells Science, 140, 405, 1963. Table A • 2. Delayed hypersensitivity against cell antigen (DTH) Mice B6 D2 F1, antigen SRBC (red sheep corpuscles) Lagrange P.H., Mackaness G.B and Miller T.E., potentiation of T-cell-mediated immunity by selective suppression of antibody formation with cyclophosphamide. J. Exp. Med., 139, 1529, 1974. Table B • 3. Macrophage cytotoxic activity against target tumour induced by Corynebacterium Parvum Mice C57 BL/6; tumour L1210 pretagged with ⁵¹Cr; attack:target ratio 80:1; tumouricide activity evaluated as release of tagging compound and expressed as % of specific cytotoxicity. Herscowitr H.B. et al., Eds., Manual of macrophage methodology, M. Dekker 1981. Table C • 4. Splenic NK (natural cytotoxic cell) activity potentiated with polynucleotide (Poly I:C) Mice C57 BL/6; tumour YAC-1; evaluation as in test 3. Herbeman R.B. Ed., "Natural cell-mediated immunity against tumors". Academic Press, 1980. Table D
The treatment was carried out during the inductive stage of the response.

The test system of experiment [2] is antigen SRBC (red sheep corpuscles). Put plainly: Delayed hypersensitivity against cell antigen (DTH). The class given is in vivo, Mice B6 D2 F1. To be noted: 1 gamma i.p. on day of immunisation.
From the text: as §1, with “Table D […]” for “Table D”

In the case of Tuftsin, the “% increase in PFC/spleen vs. control” value in experiment [1] was determined as 65%.

For Muramyl dipeptide, the “DTH response (Table B, continuation; column head not given)” value in experiment [2] amounted to 50.

The values are drawn from EP0352609A1 (BIORESEARCH S.p.A., priority 1988, dated 1990).
